The source of these data is patent US20230133958A1, “COMPOUNDS USEFUL IN MODULATING EGFR AND PI3K” (Mekanistic Therapeutics LLC, priority 2021, published 2023).

In assay [1] the target is EGFR (Homo sapiens, UniProt P00533). The assay is described as follows: Z'-LYTE / Adapta biochemical kinase assay, EGFR. Conditions: concentration of 100 nM/liter; read-out: Percent Inhibition of target enzymes, EGFR. The source says:
(§1) The Z′-LYTE® biochemical assay employs a fluorescence-based, coupled-enzyme format and is based on the differential sensitivity of phosphorylated and non-phosphorylated peptides to proteolytic cleavage. The peptide substrate is labeled with two fluorophores—one at each end—that make up a FRET pair. In the primary reaction, the kinase transfers the gamma-phosphate of ATP to a single tyrosine, serine or threonine residue in a synthetic FRET-peptide. In the secondary reaction, a site-specific protease recognizes and cleaves non-phosphorylated FRET-peptides. Phosphorylation of FRET-peptides suppresses cleavage by the Development Reagent. Cleavage disrupts FRET between the donor (i.e., coumarin) and acceptor (i.e., fluorescein) fluorophores on the FRET-peptide, whereas uncleaved, phosphorylated FRET-peptides maintain FRET. A ratiometric method, which calculates the ratio (the Emission Ratio) of donor emission to acceptor emission after excitation of the donor fluorophore at 400 nm, is used to quantitate reaction progress.
(§2) A significant benefit of this ratiometric method for quantitating reaction progress is the elimination of well-to-well variations in FRET-peptide concentration and signal intensities. As a result, the assay yields very high Z′-factor values (>0.7) at a low percent phosphorylation.
(§3) Both cleaved and uncleaved FRET-peptides contribute to the fluorescence signals and therefore to the Emission Ratio. The extent of phosphorylation of the FRET-peptide can be calculated from the Emission Ratio. The Emission Ratio will remain low if the FRET-peptide is phosphorylated (i.e., no kinase inhibition) and will be high if the FRET-peptide is non-phosphorylated (i.e., kinase inhibition).
(§4) Enzyme: The ADAPTA universal kinase assay is a homogenous, fluorescent based immunoassay for the detection of ADP. In contrast to ATP depletion assays, the ADAPTA assay is extremely sensitive to ADP formation such that a majority of the signal change occurs in the first 10-20% conversion of ATP to ADP. This makes the ADAPTA universal kinase assay ideally suited for use with low activity kinases.
(§5) The principle of the ADAPTA universal kinase assay is outlined below. The assay itself can be divided into two phases: a kinase reaction phase, and an ADP detection phase. In the kinase reaction phase, all components required for the kinase reaction are added to the well, and the reaction is allowed to incubate for 60 minutes. After the reaction, a detection solution consisting of a europium labeled anti-ADP antibody, an Alexa Fluor® 647 labeled ADP tracer, and EDTA (to stop the kinase reaction) is added to the assay well. ADP formed by the kinase reaction (in the absence of an inhibitor) will displace the Alexa Fluor® 647 labeled ADP tracer from the antibody, resulting in a decrease in the TR-FRET signal. In the presence of an inhibitor, the amount of ADP formed by the kinase reaction is reduced, and the resulting intact antibody-tracer interaction results in a high TR-FRET signal.
(§6) Test Compounds: The Test Compounds are screened in 1% DMSO (final) in the well. For 10 point titrations, 3-fold serial dilutions are conducted from the starting concentration of the customer’s choosing.
(§7) Peptide/Kinase Mixtures: All Peptide/Kinase Mixtures are diluted to a 2X working concentration in the appropriate Kinase Buffer.
(§8) ATP Solution: All ATP Solutions are diluted to a 4X working concentration in Kinase Buffer (50 mM HEPES pH 7.5, 0.01% BRIJ-35, 10 mM MgCl2,1 mM EGTA). ATP Km apparent is previously determined using a Z′-LYTE® assay.
(§9) Development Reagent Solution: The Development Reagent is diluted in Development Buffer.
(§10) Assay Protocol: Bar-coded Corning, low volume NBS, black 384-wellplate (Corning Cat. #4514) 1. 2.5 µL - 4X Test Compound or 100 nL 100X plus 2.4 µL kinase buffer. 2. 5 µL - 2X Peptide/Kinase Mixture. 3. 2.5 µL - 4X ATP Solution. 4. 30-second plate shake. 5. 60-minute Kinase Reaction incubation at room temperature. 6. 5 µL - Development Reagent Solution. 7. […]

Assay [2] concerns the target DNA-PK (Homo sapiens, UniProt P78527). The assay is described as follows: Z'-LYTE / Adapta biochemical kinase assay, DNA-PK. The following applies: concentration of 100 nM/liter; read-out: Percent Inhibition of target enzymes, DNA-PK.
Source text: as §1, §2, §3, §4, §5, §6, §7, §8, §9, §10

The target in assay [3] is PI3Kα (Homo sapiens, UniProt P42336). The assay is described as follows: Z'-LYTE / Adapta biochemical kinase assay, PI3Kα. The following applies: concentration of 100 nM/liter; read-out: Percent Inhibition of target enzymes, PI3K A.
Sequence of PI3Kα (P42336 whole entry): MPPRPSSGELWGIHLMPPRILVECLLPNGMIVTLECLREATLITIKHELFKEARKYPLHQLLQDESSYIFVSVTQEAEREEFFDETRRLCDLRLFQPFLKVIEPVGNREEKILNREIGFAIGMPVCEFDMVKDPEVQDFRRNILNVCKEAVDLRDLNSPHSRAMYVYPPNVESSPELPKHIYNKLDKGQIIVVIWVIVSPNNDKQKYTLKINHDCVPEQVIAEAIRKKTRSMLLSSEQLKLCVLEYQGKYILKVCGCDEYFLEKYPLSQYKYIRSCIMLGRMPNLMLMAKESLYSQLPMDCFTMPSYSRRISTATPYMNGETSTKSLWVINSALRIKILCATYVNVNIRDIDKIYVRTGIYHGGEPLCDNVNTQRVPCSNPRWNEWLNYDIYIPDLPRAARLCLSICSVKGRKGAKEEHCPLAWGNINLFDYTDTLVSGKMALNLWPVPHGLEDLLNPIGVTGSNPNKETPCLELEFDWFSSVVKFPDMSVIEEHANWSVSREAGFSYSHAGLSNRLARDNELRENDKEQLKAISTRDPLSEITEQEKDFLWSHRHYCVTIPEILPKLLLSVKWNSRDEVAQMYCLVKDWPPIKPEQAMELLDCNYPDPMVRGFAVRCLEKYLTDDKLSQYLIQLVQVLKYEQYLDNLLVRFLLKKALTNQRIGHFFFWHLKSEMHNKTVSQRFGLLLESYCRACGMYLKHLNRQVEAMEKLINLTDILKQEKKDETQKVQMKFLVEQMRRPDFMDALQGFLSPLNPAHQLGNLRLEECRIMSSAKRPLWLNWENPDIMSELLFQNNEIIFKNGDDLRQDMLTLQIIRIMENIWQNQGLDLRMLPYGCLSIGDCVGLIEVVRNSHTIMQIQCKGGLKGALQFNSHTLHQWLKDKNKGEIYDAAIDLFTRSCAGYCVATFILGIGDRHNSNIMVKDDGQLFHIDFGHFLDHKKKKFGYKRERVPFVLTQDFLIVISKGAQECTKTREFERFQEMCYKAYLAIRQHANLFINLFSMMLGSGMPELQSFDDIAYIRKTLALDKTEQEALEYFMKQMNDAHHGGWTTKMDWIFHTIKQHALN
Sequence of PI3Kα (P27986 whole entry partner): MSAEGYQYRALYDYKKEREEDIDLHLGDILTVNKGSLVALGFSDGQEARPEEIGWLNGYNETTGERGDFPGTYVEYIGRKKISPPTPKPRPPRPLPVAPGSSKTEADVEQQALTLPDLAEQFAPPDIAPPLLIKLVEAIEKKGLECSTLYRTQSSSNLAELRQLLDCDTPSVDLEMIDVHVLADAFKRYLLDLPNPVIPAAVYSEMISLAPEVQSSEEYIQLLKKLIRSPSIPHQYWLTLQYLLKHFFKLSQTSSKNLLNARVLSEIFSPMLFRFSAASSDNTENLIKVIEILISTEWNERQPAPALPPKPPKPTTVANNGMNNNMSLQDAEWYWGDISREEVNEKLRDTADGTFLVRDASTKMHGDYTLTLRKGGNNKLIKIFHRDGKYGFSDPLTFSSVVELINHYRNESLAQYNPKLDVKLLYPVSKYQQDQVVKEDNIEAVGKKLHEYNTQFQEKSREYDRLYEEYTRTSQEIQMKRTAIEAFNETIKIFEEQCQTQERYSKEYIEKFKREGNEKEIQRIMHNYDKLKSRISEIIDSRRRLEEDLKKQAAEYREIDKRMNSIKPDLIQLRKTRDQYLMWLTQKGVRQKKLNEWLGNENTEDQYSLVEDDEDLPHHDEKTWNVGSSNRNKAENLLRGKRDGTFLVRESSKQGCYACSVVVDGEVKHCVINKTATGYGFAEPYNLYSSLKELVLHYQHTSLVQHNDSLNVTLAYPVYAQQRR
Source text: as §1, §2, §3, §4, §5, §6, §7, §8, §9, §10

Sequence of EGFR (P00533 25-1210): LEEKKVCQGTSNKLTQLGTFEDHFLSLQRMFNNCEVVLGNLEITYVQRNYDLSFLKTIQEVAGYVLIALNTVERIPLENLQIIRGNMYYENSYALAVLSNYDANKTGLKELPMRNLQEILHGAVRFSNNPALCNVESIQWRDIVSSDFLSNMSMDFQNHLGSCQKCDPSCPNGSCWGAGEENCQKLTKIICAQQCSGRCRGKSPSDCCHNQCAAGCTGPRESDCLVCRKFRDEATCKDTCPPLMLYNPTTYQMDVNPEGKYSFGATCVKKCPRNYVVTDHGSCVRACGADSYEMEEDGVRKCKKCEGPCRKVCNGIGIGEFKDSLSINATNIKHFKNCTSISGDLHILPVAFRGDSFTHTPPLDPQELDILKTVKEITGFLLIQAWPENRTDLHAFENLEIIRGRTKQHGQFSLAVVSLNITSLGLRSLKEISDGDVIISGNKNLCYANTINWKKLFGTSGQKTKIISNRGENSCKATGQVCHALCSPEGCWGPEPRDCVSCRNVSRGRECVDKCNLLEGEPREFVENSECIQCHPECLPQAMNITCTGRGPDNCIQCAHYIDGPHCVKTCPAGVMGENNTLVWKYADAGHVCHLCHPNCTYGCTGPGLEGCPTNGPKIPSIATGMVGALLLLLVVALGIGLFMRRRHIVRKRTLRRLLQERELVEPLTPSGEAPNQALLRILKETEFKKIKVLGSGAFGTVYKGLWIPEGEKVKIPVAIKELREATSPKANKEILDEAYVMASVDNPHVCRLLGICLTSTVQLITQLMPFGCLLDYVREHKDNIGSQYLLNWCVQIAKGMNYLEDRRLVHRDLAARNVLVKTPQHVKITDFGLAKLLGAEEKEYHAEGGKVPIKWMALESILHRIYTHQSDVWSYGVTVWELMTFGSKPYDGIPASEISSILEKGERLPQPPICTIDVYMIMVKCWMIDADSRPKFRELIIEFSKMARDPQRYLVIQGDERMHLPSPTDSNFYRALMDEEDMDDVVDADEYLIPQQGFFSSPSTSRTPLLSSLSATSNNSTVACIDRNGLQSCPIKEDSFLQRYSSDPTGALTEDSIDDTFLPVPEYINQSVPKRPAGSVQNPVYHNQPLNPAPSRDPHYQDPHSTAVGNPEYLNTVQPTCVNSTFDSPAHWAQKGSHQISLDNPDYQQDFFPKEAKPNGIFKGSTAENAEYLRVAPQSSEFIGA

Broadly, the inhibition is the relative decrease from the control value, in per cent. On to `Cc1ncc(-c2ccc3ncnc(Nc4cccc(Cl)c4F)c3c2)cc1NS(C)(=O)=O` [Compound 1, N-[5-[4-(3-chloro-2-fluoro-anilino)quinazolin-6-yl]-2-methyl-3-pyridyl] methanesulfonamide], for which the inhibition at 0.1 µM was greater than 90% in assay [1], greater than 90% in assay [2] and 80 to 90% in assay [3].
`CS(=O)(=O)Nc1cncc(-c2ccc3ncnc(Nc4cccc(Cl)c4F)c3c2)c1` [Compound 3, N-[5-[4-(3-chloro-2-fluoro-anilino)quinazolin-6-yl]-3-pyridyl] methanesulfonamide]: the inhibition at 0.1 µM in assay [1] was greater than 90%; in assay [2] it was 80 to 90%; in assay [3] it was 10 to 80%.
For `COc1ncc(-c2ccc3ncnc(Nc4cccc(Cl)c4F)c3c2)cc1NS(C)(=O)=O` [Compound 2, N-[5-[4-(3-chloro-2-fluoro-anilino)quinazolin-6-yl]-2-methoxy-3-pyridyl] methanesulfonamide] the same measures were greater than 90%, 80 to 90% and greater than 90%.
